The source of these data is US12502400B2, “Method of preventing of systemic-to-pulmonary-artery shunt thrombosis” (Chiesi Farmaceutici S.p.A., priority 2017, dated 2025).

For one series, the system named is purified platelets. The series is described as follows: ADP-induced platelet aggregation by light transmission aggregometry (LTA), EC50 for ADP. In kind it is cell-based, human. The following applies: LTA with fibrinogen. The method, then:
Purified platelets were suspended to a final concentration of 400,000/μl in platelet buffer containing 145 mM NaCl, 10 mM Hepes, 0.5 mM Na2HPO4, 5 mM KCl, 2 mM MgCl2, 1 mM CaCl2), 0.10% glucose, pH 7.4. […] Human fibrinogen (final concentration 200 μg/ml) was added to the platelet suspensions just prior to activation. Aggregation was assessed using a Chronolog Lumi-Aggregometer (model 540 VS, Chronolog, Havertown, PA) and permitted to proceed for 6 min after the addition of agonist. The results are reported as maximum percent change in light transmittance from baseline with platelet buffer used as a reference.
We next determine the functional response of platelets from neonates as well as older patients with congenital heart disease to ADP stimulation. This was accomplished by calculating EC50 values for the agonist using isolated platelets in fibrinogen-supplemented buffer.

For series [1] the following is noted: early institution within 12 hours of surgery; cited from earlier work.
In series [2] the test system is platelets in PPACK-treated whole blood. The series is described as follows: Multichannel microfluidic device, platelet accumulation on collagen under flow. The following applies: Homo sapiens, read-out: effective IC50 (surface fluorescence at 300 s). In kind it is cell-based. The method, then: Microfluidic devices with 8 individual channels (250 μm wide×60 μm-high) were fabricated in polydimethylsiloxane (PDMS) as previously described. The device was reversibly vacuum-sealed to a glass slide with its flow channels aligned perpendicularly to a patterned type 1 collagen surface (1 mg/ml). To visualize platelet accumulation over time, an Alexa Fluor 488 conjugated, non-function blocking mouse anti-human CD61 (GPIIb/IIIa) antibody was added (1:50 ratio) 7 min prior to performing experiments (0.125 μg/ml final concentration).
Whole blood from neonates with single ventricle pathology or healthy adults was perfused over the prothrombotic surface at an initial wall shear rate of 100 s^−1 by withdrawal from a single outlet into a syringe pump (Harvard Apparatus Pump 11 Elite, Holliston, MA). Platelet accumulation was visualized (10× objective lens) using an automated inverted microscope system (DMI6000, Leica) equipped with a CCD camera (DFC365FX, Leica). A custom stage insert held three microfluidic devices allowing replicate testing of four conditions. Images were captured in 30 s intervals for a total of 5 min. Platelet fluorescence intensities, which are directly proportional to the total platelet mass were measured and analyzed with Image J software (Image J; NIH, Bethesda, MD). The center 65% of the prothrombotic region was selected for analysis to avoid edge effects. […]

Series [3] deals with human platelet thrombus formation. Description: Human platelet thrombus formation in laser-injured arterioles of avatar mice. In kind it is in vivo, VWFHA1 mutant mice. The following applies: for Contrast estimate (mean difference in thrombus size pre- and post-administration): linear mixed model; for platelet accumulation at sites of arteriole injury: platelets from neonates and older pediatric CHD patients. The method, then:
Administration of anesthesia, insertion of venous and arterial catheters, fluorescent labeling of human platelets, and surgical preparation of the cremaster muscle in 12 week old male VWF HA1 mice have been previously described.
Human platelets (700K/μL) were continuously infused (25 μl/min) through a catheter placed in the ipsilateral femoral artery 2 min prior to and during laser-induced injury to ensure a level of circulating cells equivalent to humans.^33 Injury to the vessel wall of arterioles (40-65 μm diameter) was performed with a pulsed nitrogen dye laser applied through a 20× water-immersion Olympus objective. Human platelet-vessel wall interactions were visualized by fluorescence microscopy using a system equipped with a Yokogawa CSU-22 spinning disk confocal scanner, iXON EM camera, and 488-nm laser line (Revolution XD, Andor Technology, South Windsor, CT) to detect Calcein-AM-labeled cells, respectively. The extent of thrombus formation was assessed for 3 min after injury and the maximal area (μm^2) of coverage determined by off-line analysis (ImagePro Plus, Media Cybernetics, Bethesda, MD).
A minimum of 5 mice per patient group were studied (2 and 4 arterial segments pre and post-cangrelor per mouse, respectively).
To compare mean thrombus areas between different treatment groups, we fit linear mixed models with random intercepts for each study animal. Linear mixed models permit comparison of mean differences between treatment groups while also considering the effect of the clustering of the data on the SEs resulting from multiple measurements obtained from each mouse used in intravital studies. In the case of platelet aggregation studies, values are presented as mean±SEM. A 2-tailed Student t test was used for comparisons between control conditions and treatments. Differences with values of P<0.05 were considered statistically significant.

The subject of another series is platelet aggregation. The series is described as follows: Phase 1 PK/PD clinical trial in post-operative neonates with CHD, LTA and microfluidics. In kind it is in vivo, human. Particulars: infusion 0.5 or 0.25 μg/kg/min for one hour; post-operative neonates with shunt. The source says: FIG. 7. Pharmacodynamic properties of cangrelor administered to neonates with CHD in the early post-operative period. A phase 1 clinical trial is currently being conducted to assess the drug plasma levels and effects on platelet aggregation using LTA and microfluidics. […] B, microfluidic results under the same conditions as outlined for LTA.

For series [4] the following is noted: cited from earlier work.
For series [5] the following is noted: adults with coronary artery disease, cited from earlier work.
In a further series the target is T1, integrin αIIbβ3 (Homo sapiens, UniProt P05106+P08514).
T1 construct: the platelet integrin receptor αIIbβ3 that stabilizes adhesion by engaging with ligands such as VWF; endogenous in cells; host or cells: platelets from pediatric patients with CHD or healthy adults
Description: ADP-induced firm adhesion of platelets to surface-immobilized VWF in flow. The following applies: platelets from pediatric CHD patients or healthy adults. In kind it is cell-based. The method, then:
A parallel-plate flow chamber was used to assess platelet accumulation on surface-immobilized plasma VWF at a wall shear rate of 1,600s-1.29, 31 In brief, a polyclonal anti-VWF antibody was absorbed overnight (4° C.) to a six-well tissue culture plate. Subsequently, the plate was washed and nonspecific interactions blocked by the addition of TBS containing 3% BSA, pH 7.4 (30 min, 37° C.). Human or murine (VWF^HA1) plasma obtained from heparinized whole blood was added and the plates placed at 37° C. for an additional hour prior to use. Citrated whole blood was then perfused over the reactive substrate for 3 minutes, followed by the addition of platelet buffer lacking CaCl2 for 1 min. The number of platelets attached per unit area was determined by offline analysis (ImagePro Plus, Media Cybernetics, Bethesda, MD) of recorded digital images. For GPIbα inhibition studies, mAb 6D1 (10 μg/ml) was added to anticoagulated human blood for 10 min before use.
Although GPIbα initiates platelet deposition at arterial shear rates, this adhesive interaction is labile in nature permitting platelets to translocate in response to forces generated by flowing blood. Ultimately it is the platelet integrin receptor αIIbβ3 that stabilizes adhesion by engaging with ligands such as VWF in response to ADP and/or thrombin.

Read-outs that look alike come from different tables or passages of the source. Bounds are passed on as bounds.

The EC50 is the concentration at which the effect is half-maximal. In the case of `Nc1ncnc2c1ncn2[C@@H]1O[C@H](COP(=O)(O)OP(=O)(O)O)[C@@H](O)[C@H]1O` [ADP], the EC50 is 3.4 ± 0.1 µM in the series on purified platelets (platelets from CHD patients 0-28 days), 2.9 ± 0.1 µM in the series with purified platelets (platelets from CHD patients 1-10 years), 3.2 ± 0.2 µM in the series with purified platelets (platelets from CHD patients 11-18 years) and 3.2 ± 0.2 µM with purified platelets (platelets from healthy adults).
`CC(=O)Oc1ccccc1C(=O)O` [aspirin]: the “risk of shunt thrombosis and death” value in series [1] was “reduced the risk of shunt thrombosis and death”.
As usually defined, the IC50 is the concentration that gives 50% inhibition. In the case of `CSCCNc1nc(SCCC(F)(F)F)nc2c1ncn2[C@@H]1O[C@H](COP(=O)(O)OP(=O)(O)C(Cl)(Cl)P(=O)(O)O)[C@@H](O)[C@H]1O` [cangrelor], the results for the concentration for half-maximal inhibition (IC50) in series [2] (whole blood from healthy adults) and in series [2] (whole blood from neonates with CHD (single ventricle physiology)) were 0.00095 µM and 0.00069 µM, respectively. The “Contrast estimate (mean difference in thrombus size pre- and post-administration)” value in series [3] (platelets from adults) is on record as 3,501 μm2; in series [3] (platelets from age group 0-28 days) it was 2,261 μm2; in series [3] (platelets from age group 1-10 years), 3,314 μm2; in series [3] (platelets from age group 11-18 years), 3,475 μm2. The compound further registered a reduced thrombus size in series [3] (platelets from neonates and older CHD patients, all cases, doses recommended for PCI, P<0.0001) above 45%. In series [3], the “platelet accumulation at sites of arteriole injury” value was “did not completely prevent platelet accumulation”. In series [3] (platelets from pediatric cardiac patients, 30 μg/kg bolus then 4 μg/kg/min infusion, P<0.0001), the “reduction in thrombus size” value is around 45%. Besides, in the series on platelet aggregation, the “effect on platelet aggregation assessed by LTA and microfluidics” value is “efficacy and rapid reversibility”. Further, the “restoration of hemostasis, as assessed by bleeding time” value in series [4] (after cessation of infusion of a supratherapeutic dose) was at most 10 min. In addition, the “full platelet function recovery as determined by response to ADP” value in series [4] (after cessation of infusion) was at most 60 min. Further, in series [5] (PCI), the “risk of severe bleeding” value is reported as “without significantly increasing the risk of severe bleeding”. The “ischemic events during PCI” value in series [5] is “significantly reduce ischemic events”.
On to “abciximab: function blocking antibody to integrin αIIbβ3”, for which the “platelet accumulation at sites of arteriole injury” value in series [3] was “nearly abrogated platelet-vessel wall interactions”. Also, the abrogated platelet accumulation in series [3] (platelets from pediatric cardiac patients, laser-injured arterioles, P<0.0001) is on record as above 90%. Also, the “firm adhesion of platelets to surface-immobilized VWF in response to ADP” value with integrin αIIbβ3 is “prevent the firm adhesion”.
